The target of assay [1] is T1, calcitriol receptor (Sus scrofa, UniProt A3RGC1).
T1 sequence (A3RGC1 1-427): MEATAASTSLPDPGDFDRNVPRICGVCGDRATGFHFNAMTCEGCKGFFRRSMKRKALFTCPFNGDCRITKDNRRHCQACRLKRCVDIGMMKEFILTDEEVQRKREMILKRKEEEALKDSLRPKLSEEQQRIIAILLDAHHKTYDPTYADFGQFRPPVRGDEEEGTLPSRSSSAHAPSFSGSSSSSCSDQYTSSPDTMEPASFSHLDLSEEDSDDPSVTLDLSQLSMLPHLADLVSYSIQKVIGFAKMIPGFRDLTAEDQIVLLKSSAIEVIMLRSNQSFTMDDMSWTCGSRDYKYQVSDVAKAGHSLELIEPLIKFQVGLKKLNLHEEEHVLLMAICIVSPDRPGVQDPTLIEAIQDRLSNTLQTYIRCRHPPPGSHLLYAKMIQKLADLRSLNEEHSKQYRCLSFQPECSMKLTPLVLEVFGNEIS
Put plainly: calcitriol-receptor test (competition with 3H-calcitriol). To be noted: quotient of concentrations of test substance and calcitriol for 50% competition, receptor protein from intestines of juvenile pigs.
Method: The vitamin D activity of the substances according to the invention is determined with the aid of the calcitriol-receptor test. It is carried out with use of a specific receptor protein from the intestines of juvenile pigs.
Then, the samples are centrifuged at 10,000×g for 5 minutes at 4° C. The supernatant is decanted and measured in a β-counter after 1 hour of equilibration in Picofluor 15™.
The competition curves that are obtained with various concentrations of test substance as well as of reference substance (unlabeled calcitriol) at constant concentration of the reference substance (^3H-calcitriol) are placed in relation to one another and a competition factor (KF) is determined.
It is defined as a quotient of the concentrations of the respective test substance and the reference substance, which are necessary for 50% competition: [formula]

The subject of assay [2] is HL 60 cells. Put plainly: differentiation induction of HL 60 cells to macrophages (NBT reduction). Type of assay: cell-based, human. The note with it: DR = test substance dose/calcitriol dose for comparable semi-maximum effects; 96 hours incubation. The method, then: It is known in the literature (Mangelsdorf, D. J. et al., J. Cell. Biol. 98: 391-398 (1984)), that the treatment of human leukemia cells (promyelocyte cell line HL 60) in vitro with calcitriol induces the differentiation of cells to macrophages.
HL 60 cells are cultivated in tissue culture medium (RPMI 10% fetal calf serum) at 37° C. in an atmosphere of 5% CO2 in air.
For substance testing, the cells are centrifuged off, and 2.0×10^5 cells/ml in phenol red-free tissue culture medium is taken up. The test substances are dissolved in ethanol and diluted with tissue culture medium without phenol red to the desired concentration. The dilution stages are mixed with the cell suspension at a ratio of 1:10, and 100 μl each of this cell suspension that is mixed with substance is pipetted into an indentation of a 96-hole plate. For control, a cell suspension is mixed analogously with the solvent.
After incubation for 96 hours at 37° C. in 5% CO2 in air, 100 μl of an NBT-TPA solution (nitro blue tetrazolium (NBT), final concentration in the batch of 1 mg/ml, tetradecanoyl phorbolmyristate-13-acetate (TPA), final concentration in the batch of 2×10^−7 mol/l) is pipetted into each indentation of the 96-hole plate in the cell suspension.
By incubation for 2 hours at 37° C. and 5% CO2 in air, NBT is reduced to insoluble formazan because of the intracellular oxygen radical release, stimulated by TPA, in the cells that are differentiated to macrophages.
To complete the reaction, the indentations of the 96-hole plate are suctioned off, and the cells are affixed to the bottom of the plate by adding methanol and dried after affixing. To dissolve the intracellular formazan crystals that are formed, 100 μl of potassium hydroxide (2 mol/l) and 100 μl of dimethyl sulfoxide are pipetted into-each indentation and ultrasonically treated for 1 minute. The concentration of formazan is measured by spectrophotometry at 650 nm.
As a yardstick for the differentiation induction of HL 60 cells to macrophages, the concentration of formed formazan applies.

The test system of assay [3] is HL 60 cells. The assay can be described thus: antagonism of the action of calcitriol in HL 60 cells. Type of assay: cell-based, human.

Structures are written as SMILES.

Data on 15 compounds can be found in US6376480B1, “Vitamin D derivatives with substituents at C-25, process for their production, intermediate products and use for the production of pharmaceutical agents” (Schering Aktiengesellschaft, priority 1995, dated 2002).

Take `CC(=O)C1(C(O)C=CC(C)(C)C2CCC3C(=CC=C4CC(O)CC(O)C4)CCCC32C)CC1` [Compound 81a, (7E,22E)-(1R,3R,24S)-25-Acetyl-20-methyl-26,27-cyclo-19-nor-9,10-secocholesta-5,7,22-triene-1,3,24-triol]: the “Competition Factor KF for Receptor Bonding” value (“Competition Factor KF” below) in assay [1] is given as 10. Further, the “Dose Ratio for Differentiation Induction in HL 60 Cells” value in assay [2] was 0.2.
For `CC(=O)C1(C(O)C=CC(C)(C)C2CCC3C(=CC=C4CC(O)CC(O)C4)CCCC32C)CC1` [Compound 81b, (7E,22E)-(1R,3R,24R)-25-acetyl-20-methyl-26,27-cyclo-19-nor-9,10-secocholesta-5,7,22-triene-1,3,24-triol] the same measures were 3 and 0.1.
The corresponding values for `C=C1/C(=C\C=C2/CCC[C@]3(C)[C@@H]([C@H](C)/C=C/[C@@H](O)C4(C(=O)c5ccccc5)CC4)CC[C@@H]23)C[C@@H](O)C[C@@H]1O` [Compound 10b, (5Z,7E,22E)-(1S,3R,24R)-25-benzoyl-26,27-cyclo-9,10-secocholesta-5,7,10(19),22-tetraene-1,3,24-triol] are 2 and 6.
As for `CCCCCC(=O)C1([C@H](O)/C=C/C(C)(C)[C@H]2CC[C@H]3/C(=C/C=C4C[C@@H](O)C[C@H](O)C4)CCC[C@]23C)CC1` [Compound 87b, (7E,22E)-(1R,3R,24R)-20-methyl-25-(1-oxohexyl)-26,27-cyclo-19-nor-9,10-secocholesta-5,7,22-triene-1,3,24-triol], the “Competition Factor KF” value in assay [1] is 3. Moreover, the “Dose Ratio for Differentiation Induction in HL 60 Cells” value in assay [2] is on record as 116. In addition, in assay [3], the “antagonism of the action of calcitriol in HL 60 cells” value is recorded as “antagonize the action of calcitriol”.
Consider `C=C1C(=CC=C2CCCC3(C)C2CCC3C(C)(C)C=CC(O)C2(C(C)=O)CC2)CC(O)CC1O` [Compound 33b, (5Z,7E,22E)-(1S,3R,24R)-25-acetyl-20-methyl-26,27-cyclo-9,10-secocholesta-5,7,10(19),22-tetraene-1,3,24-triol], for which the “Competition Factor KF” value in assay [1] was determined as 4. Also, the “Dose Ratio for Differentiation Induction in HL 60 Cells” value in assay [2] was determined as 0.4.
Take `CCCCCCC(=O)C1([C@@H](O)/C=C/[C@@H](C)[C@H]2CC[C@H]3/C(=C/C=C4C[C@@H](O)C[C@H](O)C4)CCC[C@]23C)CC1` [Compound 64a, (7E,22E)-(1R,3R,24S)-25-(1-Oxoheptyl)-26,27-cyclo-19-nor-9,10-secocholesta-5,7,22-triene-1,3,24-triol]: in assay [1], the “Competition Factor KF” value worked out at 3.5. For the same compound, the “Dose Ratio for Differentiation Induction in HL 60 Cells” value in assay [2] stood at 120. In addition, the “antagonism of the action of calcitriol in HL 60 cells” value in assay [3] is given as “antagonize the action of calcitriol”.
The corresponding values for `C=C1/C(=C\C=C2/CCC[C@]3(C)[C@@H]([C@H](C)/C=C/[C@@H](O)C4(/C=C/C(=O)OCC)CC4)CC[C@@H]23)C[C@@H](O)C[C@@H]1O` [Compound 24b, [5Z,7E,22E,25(E)]-(1S,3R,24R)-25-(3-Ethoxy-3-oxo-1-propenyl)-26,27-cyclo-9,10-secocholesta-5,7,10(19),22-tetraene-1,3,24-triol] are 4, above 1000 and “antagonize the action of calcitriol”.
Consider `C=C1/C(=C\C=C2/CCC[C@]3(C)[C@@H]([C@H](C)/C=C/[C@@H](O)C4(/C=C/C(=O)OC(C)(C)C)CC4)CC[C@@H]23)C[C@@H](O)C[C@@H]1O` [Compound 26b, [5Z,7E,22E,25(E)]-(1S,3R,24R)-25-[3-(1,1-Dimethylethoxy)-3-oxo-1-propenyl]-26,27-cyclo-9,10-secocholesta-5,7,10(19),22-tetraene-1,3,24-triol], for which the “Competition Factor KF” value in assay [1] is listed as 4. Besides, in assay [2], the “Dose Ratio for Differentiation Induction in HL 60 Cells” value is recorded as above 1000. Further, the “antagonism of the action of calcitriol in HL 60 cells” value in assay [3] is “antagonize the action of calcitriol”.
For `C=C1/C(=C\C=C2/CCC[C@]3(C)[C@@H]([C@H](C)/C=C/[C@@H](O)C4(C(=O)/C=C/CCC)CC4)CC[C@@H]23)C[C@@H](O)C[C@@H]1O` [Compound 18b, [5Z,7E,22E,25(E)]-(1S,3R,24R)-25-(1-Oxo-2-hexenyl)-26,27-cyclo-9,10-secocholesta-5,7,10(19),22-tetraene-1,3,24-triol] the same measures were 2, 330 and “antagonize the action of calcitriol”.
`CC(=O)C1(C(O)C=CC(C)C2CCC3C(=CC=C4CC(O)CC(O)C4)CCCC32C)CC1` [Compound 55b, (7E,22E)-(1R,3R,24R)-25-Acetyl-26,27-cyclo-19-nor-9,10-secocholesta-5,7,22-triene-1,3,24-triol]: in assay [1], the “Competition Factor KF” value turned out to be 4.5. Besides, in assay [2], the “Dose Ratio for Differentiation Induction in HL 60 Cells” value is 0.2.
With `C=C1/C(=C\C=C2/CCC[C@]3(C)[C@@H](C(C)(C)/C=C/[C@H](O)C4(C(=O)CCCCCCC)CC4)CC[C@@H]23)C[C@@H](O)C[C@@H]1O` [Compound 43a, (5Z,7E,22E)-(1S,3R,24S)-20-methyl-25-(1-oxooctyl)-26,27-cyclo-9,10-secocholesta-5,7,10(19),22-tetraene-1,3,24-triol], the “Competition Factor KF” value in assay [1] is recorded as 48. The “Dose Ratio for Differentiation Induction in HL 60 Cells” value in assay [2] is above 1000. In addition, the “antagonism of the action of calcitriol in HL 60 cells” value in assay [3] was “antagonize the action of calcitriol”.
As to `C=C1C(=CC=C2CCCC3(C)C2CCC3C(C)(C)C=CC(O)C2(C(=O)CCC)CC2)CC(O)CC1O` [Compound 35a, (5Z,7E,22E)-(1S,3R,24S)-20-methyl-25-(1-oxobutyl)-26,27-cyclo-9,10-secocholesta-5,7,10(19),22-tetraene-1,3,24-triol], the “Competition Factor KF” value in assay [1] is 7. Also, the “Dose Ratio for Differentiation Induction in HL 60 Cells” value in assay [2] was 0.3.
For `C=C1C(=CC=C2CCCC3(C)C2CCC3C(C)(C)C=CC(O)C2(C(=O)CCC)CC2)CC(O)CC1O` [Compound 35b, (5Z,7E,22E)-(1S,3R,24R)-20-methyl-25-(1-oxobutyl)-26,27-cyclo-9,10-secocholesta-5,7,10(19),22-tetraene-1,3,24-triol] the same measures were 2 and 0.2.
As to `C=C1C(=CC=C2CCCC3(C)C2CCC3C(C)(C)C=CC(O)C2(C(C)=O)CC2)CC(O)CC1O` [Compound 33a, (5Z,7E,22E)-(1S,3R,24S)-25-acetyl-20-methyl-26,27-cyclo-9,10-secocholesta-5,7,10(19),22-tetraene-1,3,24-triol], the “Competition Factor KF” value in assay [1] was found to be 4. Moreover, in assay [2], the “Dose Ratio for Differentiation Induction in HL 60 Cells” value is on record as 0.5.
As for `C=C1C(=CC=C2CCCC3(C)C2CCC3C(C)C=CC(O)C2(C(=O)C3CC3)CC2)CC(O)CC1O` [Compound 12b, (5Z,7E,22E)-(1S,3R,24R)-25-(Cyclopropylcarbonyl)-26,27-cyclo-9,10-secocholesta-5,7,10(19),22-tetraene-1,3,24-triol], the “Competition Factor KF” value in assay [1] is 2. Further, the “Dose Ratio for Differentiation Induction in HL 60 Cells” value in assay [2] is listed as 0.2.
